Test results: article PMC10011554, “BET inhibitor trotabresib in heavily pretreated patients with solid tumors and diffuse large B-cell lymphomas” (Nature Communications, 2023)

Test: Adverse events, DLTs, MTD and RP2D in phase I study CC-90010-ST-001 (NCI CTCAE v4.03)
Type: in vivo
Method: The primary endpoints of the study were the safety and tolerability of trotabresib, as well as the MTD and/or RP2D of trotabresib. Safety was assessed using the National Cancer Institute Common Terminology Criteria for Adverse Events v4.03[53].
The decision to evaluate additional subjects within a dose cohort, a higher dose cohort, intermediate dose cohorts, smaller dose increments, alternate dosing schedules, or declare an MTD will also be determined by the SRC, based on their review of clinical and laboratory safety […]
7.2.4. Definition of a Subject Evaluable for DLT
After the first dose is administered in any cohort during dose escalation, subjects in each cohort […]
more than one subject per day will be enrolled in a given dose escalation cohort.
A subject evaluable for DLT is defined as one that: […]
without experiencing a DLT,
Subjects non-evaluable for DLT will be replaced. Additional subjects within any dose cohort may be enrolled at the discretion of the SRC. Intra-subject dose escalation will not be allowed during the DLT assessment period.
7.2.5. Definition of Maximum Tolerated Dose (MTD) […]
of MTD is described in Section 7.2.2.
A variable dose cohort (eg, less frequent dosing) may be evaluated to accurately determine the MTD at the discretion of the SRC.
7.2.6. Definition of Dose-Limiting Toxicity (DLT) […]
used as a guide for the grading of severity of adverse events. A DLT is defined as any of the following toxicities occurring within the DLT assessment unless the event can clearly be […]
Do se-limiting toxicities are described below:
• Hyperglycemia meeting any of the following criteria:
− Grade 3 or greater fasting hyperglycemia (> 250 mg/dL) lasting > 4 days despite optimal medical treatment
(1 picture or pasted object on this page, not shown here)
− Hyperglycemia associated with diabetic ketoacidosis or nonketotic hyperosmolar coma regardless of glucose level
− Hyperglycemia that necessitates dose reduction despite dose interruption and resolution to ≤ grade 1 hyperglycemia within two weeks as described in […]
• Any Grade 4 non-hematologic toxicity of any duration
• Any non-hematologic toxicity Grade ≥ 3 EXCEPT for:
− Grade 3 diarrhea, nausea, or vomiting of ≤ 3 days duration (with optimal medical […]
− Grade 3 rash of the acneiform, pustular or maculopapular type which resolves to […]
level with resumption of study drug at the same dose (with optimal medical […]
− Grade 3 fatigue which resolves to Grade ≤ 2 within 7 days of study drug […]
the same dose (with optimal medical management).
• Hematological toxicities as follows:
− Grade 4 neutropenia lasting > 7 days
− Grade 4 thrombocytopenia lasting > 7 days, Grade ≥ 3 thrombocytopenia with clinically significant bleeding
• Any AE, Grade ≥ 2 not specified or exempt above, unless clearly determined to be unrelated to the drug, necessitating dose-level reduction during Cycle 1.
Isolated laboratory changes without associated clinical signs or symptoms (eg, hypomagnesemia, hypermagnesemia, hypoalbuminemia, hypophosphatemia, lymphocyte count increased or decreased) may not be included in this definition. These findings will be discussed and reviewed […]
7.2.7. Criteria for Dose Escalation in the Next Cohort of Subjects
During Part A, the dose escalation criteria are described in Section 7.2.2.
7.2.8. Definition of Stopping Criteria
During Part A, the dose escalation stopping rules are in Section 7.2.2.
7.2.9. Permitted Study Drug Adjustments
Dose reductions are permitted in any cycle, including Cycle 1.
• Dose reductions that occur in Cycle 1 during dose escalation will constitute DLT as […]

[1] = part B (12 subjects), 02 Dec 2019 cutoff
[2] = part C, cycles 1 and 2, fasted state (n = 39)
[3] = part C, cycles 1 and 2, fed state (n = 35)

Cn1cc(-c2cc(S(C)(=O)=O)ccc2OCC2CC2)c2ccccc2c1=O [trotabresib]
TRAE: Hyperglycemia (part A, grade 3): 1.45%
TRAE: Hypertension (part A, grade 3): 0%
TRAE: Hyponatremia (part A, grade 3): 1.45%
TRAE: Hypophosphatemia (part A, grade 3): 1.45%
TRAE: Nausea (part A, grade 3): 0%
TRAE: Neutropenia (part A, grade 3): 1.45%
TRAE: Platelet count decreased (part A, grade 3): 1.45%
TRAE: Stomatitis (part A, grade 3): 0%
TRAE: Thrombocytopenia (part A, grade 3): 10.14%
TRAE: Vomiting (part A, grade 3): 0%
TRAE: ALT increased (part A, grade 4): 0%
TRAE: Anemia (part A, grade 4): 0%
TRAE: Any TRAE (part A, grade 4): 7.25%
TRAE: Asthenia (part A, grade 4): 0%
TRAE: Decreased appetite (part A, grade 4): 0%
TRAE: Dehydration (part A, grade 4): 0%
TRAE: Dermatitis acneiform (part A, grade 4): 0%
TRAE: Diarrhoea (part A, grade 4): 0%
TRAE: Dysgeusia (part A, grade 4): 0%
TRAE: Fatigue (part A, grade 4): 0%
TRAE: Hyperglycemia (part A, grade 4): 0%
TRAE: Hypertension (part A, grade 4): 0%
TRAE: Hyponatremia (part A, grade 4): 1.45%
TRAE: Hypophosphatemia (part A, grade 4): 0%
TRAE: Nausea (part A, grade 4): 0%
TRAE: Neutropenia (part A, grade 4): 0%
TRAE: Platelet count decreased (part A, grade 4): 1.45%
TRAE: Stomatitis (part A, grade 4): 0%
TRAE: Thrombocytopenia (part A, grade 4): 2.9%
TRAE: Vomiting (part A, grade 4): 0%
Grade 3 hyperglycemia, treatment-related [1]: 8.3%
Grade 4 hyperglycemia, treatment-related [1]: 8.3%
TEAE anemia [1]: 66.7%
TEAE thrombocytopenia [1]: 58.3%
hyperglycemia [1]: 33.3%
subjects with at least one TEAE [1]: 83.3%
TRAE: ALT increased (part B DLBCL, any grade): 8.7%
TRAE: Anemia (part B DLBCL, any grade): 43.48%
TRAE: Any TRAE (part B DLBCL, any grade): 100%
TRAE: Asthenia (part B DLBCL, any grade): 21.74%
TRAE: Decreased appetite (part B DLBCL, any grade): 21.74%
TRAE: Dehydration (part B DLBCL, any grade): 13.04%
TRAE: Dermatitis acneiform (part B DLBCL, any grade): 0%
TRAE: Diarrhoea (part B DLBCL, any grade): 52.17%
TRAE: Dysgeusia (part B DLBCL, any grade): 8.7%
TRAE: Fatigue (part B DLBCL, any grade): 0%
TRAE: Hyperglycemia (part B DLBCL, any grade): 39.13%
TRAE: Hypertension (part B DLBCL, any grade): 4.35%
TRAE: Hyponatremia (part B DLBCL, any grade): 8.7%
TRAE: Hypophosphatemia (part B DLBCL, any grade): 17.39%
TRAE: Nausea (part B DLBCL, any grade): 21.74%
TRAE: Neutropenia (part B DLBCL, any grade): 39.13%
TRAE: Platelet count decreased (part B DLBCL, any grade): 0%
TRAE: Stomatitis (part B DLBCL, any grade): 17.39%
TRAE: Thrombocytopenia (part B DLBCL, any grade): 91.3%
TRAE: Vomiting (part B DLBCL, any grade): 17.39%
TRAE: ALT increased (part B DLBCL, grade 3): 0%
TRAE: Anemia (part B DLBCL, grade 3): 26.09%
TRAE: Any TRAE (part B DLBCL, grade 3): 26.09%
TRAE: Asthenia (part B DLBCL, grade 3): 8.7%
TRAE: Decreased appetite (part B DLBCL, grade 3): 4.35%
TRAE: Dehydration (part B DLBCL, grade 3): 13.04%
TRAE: Dermatitis acneiform (part B DLBCL, grade 3): 0%
TRAE: Diarrhoea (part B DLBCL, grade 3): 0%
TRAE: Dysgeusia (part B DLBCL, grade 3): 0%
TRAE: Fatigue (part B DLBCL, grade 3): 0%
TRAE: Hyperglycemia (part B DLBCL, grade 3): 4.35%
TRAE: Hypertension (part B DLBCL, grade 3): 4.35%
TRAE: Hyponatremia (part B DLBCL, grade 3): 0%
TRAE: Hypophosphatemia (part B DLBCL, grade 3): 13.04%
TRAE: Nausea (part B DLBCL, grade 3): 4.35%
TRAE: Neutropenia (part B DLBCL, grade 3): 13.04%
TRAE: Platelet count decreased (part B DLBCL, grade 3): 0%
TRAE: Stomatitis (part B DLBCL, grade 3): 0%
TRAE: Thrombocytopenia (part B DLBCL, grade 3): 17.39%
TRAE: Vomiting (part B DLBCL, grade 3): 0%
TRAE: ALT increased (part B DLBCL, grade 4): 0%
TRAE: Anemia (part B DLBCL, grade 4): 0%
TRAE: Any TRAE (part B DLBCL, grade 4): 65.22%
TRAE: Asthenia (part B DLBCL, grade 4): 0%
TRAE: Decreased appetite (part B DLBCL, grade 4): 0%
TRAE: Dehydration (part B DLBCL, grade 4): 0%
TRAE: Dermatitis acneiform (part B DLBCL, grade 4): 0%
TRAE: Diarrhoea (part B DLBCL, grade 4): 0%
TRAE: Dysgeusia (part B DLBCL, grade 4): 0%
TRAE: Fatigue (part B DLBCL, grade 4): 0%
TRAE: Hyperglycemia (part B DLBCL, grade 4): 4.35%
TRAE: Hypertension (part B DLBCL, grade 4): 0%
TRAE: Hyponatremia (part B DLBCL, grade 4): 0%
TRAE: Hypophosphatemia (part B DLBCL, grade 4): 0%
TRAE: Nausea (part B DLBCL, grade 4): 0%
TRAE: Neutropenia (part B DLBCL, grade 4): 13.04%
TRAE: Platelet count decreased (part B DLBCL, grade 4): 0%
TRAE: Stomatitis (part B DLBCL, grade 4): 0%
TRAE: Thrombocytopenia (part B DLBCL, grade 4): 60.87%
TRAE: Vomiting (part B DLBCL, grade 4): 0%
grade 3/4 TRAE anemia (part B R/R DLBCL (N = 23)): 26%
grade 3/4 TRAE neutropenia (part B R/R DLBCL (N = 23)): 26%
grade 3/4 TRAE thrombocytopenia (part B R/R DLBCL (N = 23)): 78%
patients who died due to TEAEs not considered related to study treatment (part B R/R DLBCL (N = 23)): 9%
patients with any-grade TRAEs (part B R/R DLBCL (N = 23)): 100%
patients with grade 3/4 TRAEs (part B R/R DLBCL (N = 23)): 91%
patients with serious TRAEs (part B R/R DLBCL (N = 23)): 30%
further grade 3 and 4 TRAEs reported in one patient each (part B R/R DLBCL population): Grade 3 abdominal infection, blood bilirubin increased, pneumonia and grade 4 blood creatinine increased, febrile neutropenia, leukopenia, and lymphopenia
TEAE leading to death, not considered related (part C (N = 41)): one
grade 3/4 TRAE thrombocytopenia (part C (N = 41)): 17%
patients with any-grade TRAEs (part C (N = 41)): 98%
patients with grade 3/4 TRAEs (part C (N = 41)): 59%
further grade 3 TRAEs reported in one patient each (part C population): Grade 3 gamma-glutamyl transferase increased, hyperamylasemia, and syncope
TRAE: ALT increased (part C, any grade): 21.95%
TRAE: Anemia (part C, any grade): 12.2%
TRAE: Any TRAE (part C, any grade): 97.56%
TRAE: Asthenia (part C, any grade): 41.46%
TRAE: Decreased appetite (part C, any grade): 34.15%
TRAE: Dehydration (part C, any grade): 0%
TRAE: Dermatitis acneiform (part C, any grade): 17.07%
TRAE: Diarrhoea (part C, any grade): 60.98%
TRAE: Dysgeusia (part C, any grade): 53.66%
TRAE: Fatigue (part C, any grade): 26.83%
TRAE: Hyperglycemia (part C, any grade): 19.51%
TRAE: Hypertension (part C, any grade): 4.88%
TRAE: Hyponatremia (part C, any grade): 2.44%
TRAE: Hypophosphatemia (part C, any grade): 4.88%
TRAE: Nausea (part C, any grade): 60.98%
TRAE: Neutropenia (part C, any grade): 12.2%
TRAE: Platelet count decreased (part C, any grade): 0%
TRAE: Stomatitis (part C, any grade): 56.1%
TRAE: Thrombocytopenia (part C, any grade): 63.41%
TRAE: Vomiting (part C, any grade): 43.9%
patients with any-grade TRAEs [2]: 95%
patients with grade 3/4 TRAEs [2]: 33%
patients with any-grade TRAEs [3]: 91%
patients with grade 3/4 TRAEs [3]: 20%
TRAE: ALT increased (part C, grade 3): 2.44%
TRAE: Anemia (part C, grade 3): 0%
TRAE: Any TRAE (part C, grade 3): 56.1%
TRAE: Asthenia (part C, grade 3): 7.32%
TRAE: Decreased appetite (part C, grade 3): 0%
TRAE: Dehydration (part C, grade 3): 0%
TRAE: Dermatitis acneiform (part C, grade 3): 0%
TRAE: Diarrhoea (part C, grade 3): 4.88%
TRAE: Dysgeusia (part C, grade 3): 0%
TRAE: Fatigue (part C, grade 3): 7.32%
TRAE: Hyperglycemia (part C, grade 3): 4.88%
TRAE: Hypertension (part C, grade 3): 2.44%
TRAE: Hyponatremia (part C, grade 3): 2.44%
TRAE: Hypophosphatemia (part C, grade 3): 4.88%
TRAE: Nausea (part C, grade 3): 4.88%
TRAE: Neutropenia (part C, grade 3): 4.88%
TRAE: Platelet count decreased (part C, grade 3): 0%
TRAE: Stomatitis (part C, grade 3): 4.88%
TRAE: Thrombocytopenia (part C, grade 3): 14.63%
TRAE: Vomiting (part C, grade 3): 2.44%
TRAE: ALT increased (part C, grade 4): 0%
TRAE: Anemia (part C, grade 4): 0%
TRAE: Any TRAE (part C, grade 4): 2.44%
TRAE: Asthenia (part C, grade 4): 0%
TRAE: Decreased appetite (part C, grade 4): 0%
TRAE: Dehydration (part C, grade 4): 0%
TRAE: Dermatitis acneiform (part C, grade 4): 0%
TRAE: Diarrhoea (part C, grade 4): 0%
TRAE: Dysgeusia (part C, grade 4): 0%
TRAE: Fatigue (part C, grade 4): 0%
TRAE: Hyperglycemia (part C, grade 4): 0%
TRAE: Hypertension (part C, grade 4): 0%
TRAE: Hyponatremia (part C, grade 4): 0%
TRAE: Hypophosphatemia (part C, grade 4): 0%
TRAE: Nausea (part C, grade 4): 0%
TRAE: Neutropenia (part C, grade 4): 0%
TRAE: Platelet count decreased (part C, grade 4): 0%
TRAE: Stomatitis (part C, grade 4): 0%
TRAE: Thrombocytopenia (part C, grade 4): 2.44%
TRAE: Vomiting (part C, grade 4): 0%
grade 5 TRAEs (whole study): No grade 5 TRAEs were reported
